# ± gives the uncertainty stated by the source.
# Test: xn = mol fraction of the nth substance listed
smiles,measurement,setting,value
OCCOCCOCCO + O,viscosity,"293.15 K, 100 kPa, x2 = 0.05",46.03 ± 0.86 mPa·s
same,viscosity,"293.15 K, 100 kPa, x2 = 0.094",44.8 ± 0.82 mPa·s
same,viscosity,"298.15 K, 100 kPa, x2 = 0.014",37.14 ± 0.62 mPa·s
same,viscosity,"298.15 K, 100 kPa, x2 = 0.094",34.66 ± 0.57 mPa·s
same,viscosity,"298.15 K, 101.33 kPa, x1 = 0.0824",3.65 ± 0.1 mPa·s
same,viscosity,"298.15 K, 101.33 kPa, x1 = 0.1678",8.7 ± 0.23 mPa·s
same,viscosity,"298.15 K, 101.33 kPa, x1 = 0.35",19.77 ± 0.52 mPa·s
same,viscosity,"303.15 K, 100 kPa, x2 = 0.05",28.19 ± 0.44 mPa·s
same,viscosity,"303.15 K, 100 kPa, x2 = 0.094",27.25 ± 0.4 mPa·s
same,viscosity,"303.15 K, 100 kPa, x2 = 0.112",27.95 ± 0.96 mPa·s
same,viscosity,"303.15 K, 101 kPa, x1 = 0.05023",2.114 ± 0.081 mPa·s
same,viscosity,"303.15 K, 101 kPa, x1 = 0.1004",4.102 ± 0.084 mPa·s
same,viscosity,"303.15 K, 101 kPa, x1 = 0.1518",6.604 ± 0.089 mPa·s
same,viscosity,"303.15 K, 101 kPa, x1 = 0.2006",9.27 ± 0.095 mPa·s
same,viscosity,"303.15 K, 101 kPa, x1 = 0.2528",11.91 ± 0.11 mPa·s
same,viscosity,"303.15 K, 101 kPa, x1 = 0.2995",14.77 ± 0.11 mPa·s
same,viscosity,"303.15 K, 101 kPa, x1 = 0.3928",18.53 ± 0.13 mPa·s
same,viscosity,"303.15 K, 101 kPa, x1 = 0.5013",21.84 ± 0.15 mPa·s
same,viscosity,"303.15 K, 101 kPa, x1 = 0.5995",24.34 ± 0.17 mPa·s
same,viscosity,"303.15 K, 101 kPa, x1 = 0.6648",25.69 ± 0.18 mPa·s
same,viscosity,"303.15 K, 101 kPa, x1 = 0.7981",27.13 ± 0.2 mPa·s
same,viscosity,"303.15 K, 101 kPa, x1 = 0.8445",27.86 ± 0.21 mPa·s
same,viscosity,"303.15 K, 101 kPa, x1 = 0.8998",28.37 ± 0.22 mPa·s
same,viscosity,"303.15 K, 101 kPa, x1 = 0.954",28.74 ± 0.22 mPa·s
same,viscosity,"303.15 K, 101.33 kPa, x1 = 0.0004",0.781 ± 0.011 mPa·s
same,viscosity,"303.15 K, 101.33 kPa, x1 = 0.0008",0.788 ± 0.011 mPa·s
same,viscosity,"303.15 K, 101.33 kPa, x1 = 0.0014",0.798 ± 0.011 mPa·s
same,viscosity,"303.15 K, 101.33 kPa, x1 = 0.0024",0.82 ± 0.011 mPa·s
same,viscosity,"303.15 K, 101.33 kPa, x1 = 0.0056",0.875 ± 0.012 mPa·s
same,viscosity,"303.15 K, 101.33 kPa, x1 = 0.011",0.986 ± 0.013 mPa·s
same,viscosity,"303.15 K, 101.33 kPa, x1 = 0.0317",1.48 ± 0.019 mPa·s
same,viscosity,"303.15 K, 101.33 kPa, x1 = 0.0563",2.254 ± 0.028 mPa·s
same,viscosity,"303.15 K, 101.33 kPa, x1 = 0.0988",4.058 ± 0.049 mPa·s
same,viscosity,"303.15 K, 101.33 kPa, x1 = 0.1954",8.931 ± 0.096 mPa·s
same,viscosity,"303.15 K, 101.33 kPa, x1 = 0.2932",14.1 ± 0.14 mPa·s
same,viscosity,"303.15 K, 101.33 kPa, x1 = 0.3871",18.23 ± 0.18 mPa·s
same,viscosity,"303.15 K, 101.33 kPa, x1 = 0.5032",22.21 ± 0.22 mPa·s
same,viscosity,"303.15 K, 101.33 kPa, x1 = 0.5991",24.2 ± 0.24 mPa·s
same,viscosity,"303.15 K, 101.33 kPa, x1 = 0.6914",26.06 ± 0.25 mPa·s
same,viscosity,"303.15 K, 101.33 kPa, x1 = 0.7941",27.17 ± 0.26 mPa·s
same,viscosity,"308.15 K, 100 kPa, x2 = 0.05",22.55 ± 0.32 mPa·s
same,viscosity,"308.15 K, 100 kPa, x2 = 0.094",21.88 ± 0.29 mPa·s
same,viscosity,"308.15 K, 100 kPa, x2 = 0.112",22.44 ± 0.69 mPa·s
same,viscosity,"308.15 K, 101 kPa, x1 = 0.05023",1.848 ± 0.081 mPa·s
same,viscosity,"308.15 K, 101 kPa, x1 = 0.1004",3.491 ± 0.083 mPa·s
same,viscosity,"308.15 K, 101 kPa, x1 = 0.1518",5.543 ± 0.087 mPa·s
same,viscosity,"308.15 K, 101 kPa, x1 = 0.2006",7.668 ± 0.092 mPa·s
same,viscosity,"308.15 K, 101 kPa, x1 = 0.2528",9.722 ± 0.099 mPa·s
same,viscosity,"308.15 K, 101 kPa, x1 = 0.2995",11.99 ± 0.11 mPa·s
same,viscosity,"308.15 K, 101 kPa, x1 = 0.3928",14.94 ± 0.12 mPa·s
same,viscosity,"308.15 K, 101 kPa, x1 = 0.5013",17.51 ± 0.14 mPa·s
same,viscosity,"308.15 K, 101 kPa, x1 = 0.5995",19.48 ± 0.15 mPa·s
same,viscosity,"308.15 K, 101 kPa, x1 = 0.6648",20.58 ± 0.16 mPa·s
same,viscosity,"308.15 K, 101 kPa, x1 = 0.7981",21.8 ± 0.17 mPa·s
same,viscosity,"308.15 K, 101 kPa, x1 = 0.8445",22.32 ± 0.18 mPa·s
same,viscosity,"308.15 K, 101 kPa, x1 = 0.8998",22.65 ± 0.19 mPa·s
same,viscosity,"308.15 K, 101.33 kPa, x1 = 0.0004",0.707 ± 0.01 mPa·s
same,viscosity,"308.15 K, 101.33 kPa, x1 = 0.0008",0.714 ± 0.01 mPa·s
same,viscosity,"308.15 K, 101.33 kPa, x1 = 0.0014",0.725 ± 0.01 mPa·s
same,viscosity,"308.15 K, 101.33 kPa, x1 = 0.0024",0.736 ± 0.01 mPa·s
same,viscosity,"308.15 K, 101.33 kPa, x1 = 0.0056",0.787 ± 0.011 mPa·s
same,viscosity,"308.15 K, 101.33 kPa, x1 = 0.011",0.877 ± 0.012 mPa·s
same,viscosity,"308.15 K, 101.33 kPa, x1 = 0.0317",1.298 ± 0.017 mPa·s
same,viscosity,"308.15 K, 101.33 kPa, x1 = 0.0563",1.934 ± 0.025 mPa·s
same,viscosity,"308.15 K, 101.33 kPa, x1 = 0.0988",3.33 ± 0.041 mPa·s
same,viscosity,"308.15 K, 101.33 kPa, x1 = 0.1954",7.273 ± 0.081 mPa·s
same,viscosity,"308.15 K, 101.33 kPa, x1 = 0.2932",11.27 ± 0.12 mPa·s
same,viscosity,"308.15 K, 101.33 kPa, x1 = 0.3871",14.47 ± 0.15 mPa·s
same,viscosity,"313.15 K, 100 kPa, x2 = 0.014",19.23 ± 0.23 mPa·s
same,viscosity,"313.15 K, 100 kPa, x2 = 0.05",18.39 ± 0.23 mPa·s
same,viscosity,"313.15 K, 100 kPa, x2 = 0.094",17.83 ± 0.21 mPa·s
same,viscosity,"313.15 K, 101 kPa, x1 = 0.05023",1.618 ± 0.081 mPa·s
same,viscosity,"313.15 K, 101 kPa, x1 = 0.1004",3.012 ± 0.082 mPa·s
same,viscosity,"313.15 K, 101 kPa, x1 = 0.1518",4.689 ± 0.085 mPa·s
same,viscosity,"313.15 K, 101 kPa, x1 = 0.2006",6.418 ± 0.089 mPa·s
same,viscosity,"313.15 K, 101 kPa, x1 = 0.2528",8.113 ± 0.093 mPa·s
same,viscosity,"313.15 K, 101 kPa, x1 = 0.2995",9.888 ± 0.1 mPa·s
same,viscosity,"313.15 K, 101 kPa, x1 = 0.3928",12.22 ± 0.11 mPa·s
same,viscosity,"313.15 K, 101 kPa, x1 = 0.5013",14.27 ± 0.12 mPa·s
same,viscosity,"313.15 K, 101 kPa, x1 = 0.5995",15.84 ± 0.13 mPa·s
same,viscosity,"313.15 K, 101 kPa, x1 = 0.6648",16.75 ± 0.14 mPa·s
same,viscosity,"313.15 K, 101 kPa, x1 = 0.7981",17.67 ± 0.15 mPa·s
same,viscosity,"313.15 K, 101 kPa, x1 = 0.8445",18.12 ± 0.15 mPa·s
same,viscosity,"313.15 K, 101 kPa, x1 = 0.8998",18.44 ± 0.16 mPa·s
same,viscosity,"313.15 K, 101 kPa, x1 = 0.954",18.69 ± 0.16 mPa·s
same,viscosity,"318.15 K, 100 kPa, x2 = 0.014",15.91 ± 0.17 mPa·s
same,viscosity,"318.15 K, 100 kPa, x2 = 0.05",15.2 ± 0.18 mPa·s
same,viscosity,"318.15 K, 100 kPa, x2 = 0.094",14.73 ± 0.16 mPa·s
same,viscosity,"318.15 K, 100 kPa, x2 = 0.112",15.13 ± 0.42 mPa·s
same,viscosity,"318.15 K, 101 kPa, x1 = 0.05023",1.455 ± 0.08 mPa·s
same,viscosity,"318.15 K, 101 kPa, x1 = 0.1004",2.621 ± 0.081 mPa·s
same,viscosity,"318.15 K, 101 kPa, x1 = 0.1518",4.011 ± 0.084 mPa·s
same,viscosity,"318.15 K, 101 kPa, x1 = 0.2006",5.421 ± 0.086 mPa·s
same,viscosity,"318.15 K, 101 kPa, x1 = 0.2528",6.753 ± 0.09 mPa·s
same,viscosity,"318.15 K, 101 kPa, x1 = 0.2995",8.235 ± 0.094 mPa·s
same,viscosity,"318.15 K, 101 kPa, x1 = 0.3928",10.07 ± 0.1 mPa·s
same,viscosity,"318.15 K, 101 kPa, x1 = 0.5013",11.79 ± 0.11 mPa·s
same,viscosity,"318.15 K, 101 kPa, x1 = 0.5995",13.02 ± 0.12 mPa·s
same,viscosity,"318.15 K, 101 kPa, x1 = 0.6648",13.73 ± 0.12 mPa·s
same,viscosity,"318.15 K, 101 kPa, x1 = 0.7981",14.53 ± 0.13 mPa·s
same,viscosity,"318.15 K, 101 kPa, x1 = 0.8445",14.92 ± 0.13 mPa·s
same,viscosity,"318.15 K, 101 kPa, x1 = 0.8998",15.2 ± 0.14 mPa·s
same,viscosity,"318.15 K, 101 kPa, x1 = 0.954",15.4 ± 0.14 mPa·s
same,viscosity,"323.15 K, 100 kPa, x2 = 0.014",13.33 ± 0.14 mPa·s
same,viscosity,"323.15 K, 100 kPa, x2 = 0.05",12.7 ± 0.15 mPa·s
same,viscosity,"323.15 K, 100 kPa, x2 = 0.094",12.32 ± 0.13 mPa·s
same,viscosity,"323.15 K, 100 kPa, x2 = 0.112",12.64 ± 0.34 mPa·s
same,viscosity,"323.15 K, 101 kPa, x1 = 0.05023",1.295 ± 0.08 mPa·s
same,viscosity,"323.15 K, 101 kPa, x1 = 0.1004",2.296 ± 0.081 mPa·s
same,viscosity,"323.15 K, 101 kPa, x1 = 0.1518",3.473 ± 0.083 mPa·s
same,viscosity,"323.15 K, 101 kPa, x1 = 0.2006",4.63 ± 0.085 mPa·s
same,viscosity,"323.15 K, 101 kPa, x1 = 0.2528",5.724 ± 0.087 mPa·s
same,viscosity,"323.15 K, 101 kPa, x1 = 0.2995",6.927 ± 0.092 mPa·s
same,viscosity,"323.15 K, 101 kPa, x1 = 0.3928",8.441 ± 0.097 mPa·s
same,viscosity,"323.15 K, 101 kPa, x1 = 0.5013",9.827 ± 0.1 mPa·s
same,viscosity,"323.15 K, 101 kPa, x1 = 0.5995",10.84 ± 0.11 mPa·s
same,viscosity,"323.15 K, 101 kPa, x1 = 0.6648",11.45 ± 0.11 mPa·s
same,viscosity,"323.15 K, 101 kPa, x1 = 0.7981",12.09 ± 0.12 mPa·s
same,viscosity,"323.15 K, 101 kPa, x1 = 0.8445",12.41 ± 0.12 mPa·s
same,viscosity,"323.15 K, 101 kPa, x1 = 0.8998",12.64 ± 0.12 mPa·s
same,viscosity,"323.15 K, 101 kPa, x1 = 0.954",12.8 ± 0.12 mPa·s

# Reference: the CheMixHub viscosity set
